In US11400107B2, “Cancer treatments” (NuCana plc, priority 2016, dated 2022):
Entries after “also recorded” stand apart in the source; their conditions may differ.

Assays:
[1] = test system: primary acute myeloid leukaemia (AML) blasts; assay: In vitro cytotoxicity assay (LD50) in primary acute myeloid leukaemia cells; assay type: cell-based, human; settings: for LD50: primary AML blasts, 48 h, concentration required to kill 50% of the tumour cells in culture; for potency as compared to the respective parent compound (summary): summary statement of the description
Experimental: ProTide compounds, as defined herein, and the comparator ProTide compound NUC-1031 were assayed for their cytotoxic effects on primary cultures of acute myeloid leukaemia (AML) blasts. LD50 values (the concentration required to kill 50% of the tumour cells in culture) were calculated in respect of the ProTide compounds of the invention, and the parent compounds from which they are derived. […] The LD50 values of the ProTide compounds as defined herein (and their parent compounds) were compared with the comparator ProTide NUC-1031 and its parent compound gemcitabine.
Bone marrow samples were collected in ethylenediaminetetraacetic acid (EDTA) from newly diagnosed, previously untreated, acute myeloid leukaemia (AML) patients. AML blasts were enriched by density gradient centrifugation using Histopaque (Sigma, Poole, UK) and were subsequently maintained in Roswell Park Memorial Institute medium (RPMI) supplemented with 10% foetal bovine serum (FBS). Cells were treated with ProTide compounds (either as encompassed by the present invention, or the comparator ProTide NUC-1031) or with the ProTides' parent compounds at a range of experimental concentrations, and incubated for 48 h. All cultures were maintained at 37° C. in a 5% CO2 humidified atmosphere.
Cells were harvested and labelled with CD34-fluorescein isothiocyanate (FITC) (BD Biosciences, Buckingham, UK) and then resuspended in 200 μl of binding buffer containing 4 μl of annexin V labelled with allophycocyanin (APC) (eBioscience Ltd, Hatfield, UK). Apoptosis was quantified in the CD34^+ AML cells using an Accuri C6 flow cytometer (Becton Dickinson, CA, USA). At least 10,000 events were acquired and data were subsequently analysed using FlowJo software (Tree Star Inc., Ashland, Oreg., USA). All LD50 values (concentration of drug required to kill 50% of cells) were derived from the dose-response curves.

[2] = test system: Lin^−/CD34^+/CD38^−/CD123^+ cancer stem cells in KG1a cells; assay: Immunophenotypic quantification of the leukaemic stem cell compartment in KG1a cells; assay type: cell-based, human; settings: for low concentration at which the selective reduction of cancer stem cells was still observed / proportion of cancer stem cells as compared to non-stem cancer cells after treatment / selectivity against cancer stem cells compared to the parent compound: KG1a cells; for proportion of cancer stem cells as compared to non-stem cancer cells after treatment: 72 h; for selectivity for cancer stem cells as opposed to non-stem cancer cells (summary): summary statement of the description
Experimental: The respective abilities of NUC-1031 and gemcitabine to target CSCs were investigated in the AML cell line KG1a.
KG1a cells were cultured for 72 hours in the presence of a wide range of concentrations of each nucleoside analogue and their respective ProTides. Cells were then harvested and labelled with a cocktail of anti-lineage antibodies (PE-cy7), anti-CD34 (FITC), anti-CD38 (PE) and anti-CD123 (PERCP cy5). The sub-population expressing a leukaemic stem cell (LSC) phenotype were subsequently identified and were expressed as a percentage of all viable cells left in the culture. The percentages of stem cells remaining were then plotted on a dose-response graph and the proportion of cancer stem cells was compared across the various concentrations of ProTides and their respective parent compounds, in order to determine if they preferentially target cancer stem cells.
The data obtained in these experiments were evaluated using one way ANOVA. All data was confirmed as Gaussian or a Gaussian approximation using the omnibus K2 test. LD50 values were calculated from the non-linear regression and line of best-fit analysis of the sigmoidal dose-response curves. All statistical analyses were performed using Graphpad Prism 6.0 software (Graphpad Software Inc., San Diego, Calif.).

Compound | LD50 [1] | potency as compared to the respective parent compound (summary) [1] | low concentration at which the selective reduction of cancer stem cells was still observed [2] | proportion of cancer stem cells as compared to non-stem cancer cells after treatment [2] | selectivity for cancer stem cells as opposed to non-stem cancer cells (summary) [2] | selectivity against cancer stem cells compared to the parent compound [2]
C[C@H](NP(=O)(OC[C@H]1O[C@@H](n2cc(F)c(=O)[nH]c2=O)CC1O)Oc1cccc2ccccc12)C(=O)OCc1ccccc1 (single isomer, unassigned) [CPF-373 (Iso A)] | CPF 373 (Iso A) 0.052 μM | greater potency | approximately 8×10^−8 M | reduction in the proportion of cancer stem cells | selectively target for cancer stem cells; also recorded: high selectivity for cancer stem cells | 
C[C@H](NP(=O)(OC[C@H]1O[C@@H](n2cc(F)c(=O)[nH]c2=O)CC1O)Oc1cccc2ccccc12)C(=O)OCc1ccccc1 (single isomer, unassigned) [CPF-373 (Iso B)] | CPF 373 (Iso B) 0.055 μM | greater potency | approximately 8×10^−8 M | reduction in the proportion of cancer stem cells | selectively target for cancer stem cells; also recorded: high selectivity for cancer stem cells | 
C[C@H](NP(=O)(OC[C@H]1O[C@@H](n2cc(F)c(=O)[nH]c2=O)CC1O)Oc1cccc2ccccc12)C(=O)OCc1ccccc1 (some centres unmarked) [CPF-373 (mix)] | CPF 373 (mix) 0.053 μM |  |  |  |  | 
C[C@H](NP(=O)(OC[C@H]1O[C@@H](n2cc(F)c(=O)[nH]c2=O)CC1O)Oc1ccccc1)C(=O)OCc1ccccc1 (some centres unmarked) [CPF-381] | CPF 381 0.039 μM | greater potency | approximately 8×10^−8 M | reduction in the proportion of cancer stem cells | selectively target for cancer stem cells; also recorded: high selectivity for cancer stem cells | 
C[C@H](NP(=O)(OC[C@H]1O[C@@H](n2cnc3c(N)nc(Cl)nc32)[C@H](F)C1O)Oc1ccccc1)C(=O)OCc1ccccc1 (some centres unmarked) [CPF-448] |  |  | approximately 6×10^−8 M | reduction in the proportion of cancer stem cells | selectively target for cancer stem cells; also recorded: high selectivity for cancer stem cells | greater selectivity
CCOC(=O)[C@H](C)NP(=O)(OC[C@H]1O[C@@H](n2cnc3c(N)nc(F)nc32)[C@H](O)C1O)Oc1cccc2ccccc12 (some centres unmarked) [CPF-544] |  |  |  | significant decrease in the proportion of cancer stem cells | selectively target for cancer stem cells; also recorded: high selectivity for cancer stem cells | comparable
C[C@H](NP(=O)(OC[C@H]1O[C@@H](n2cc(F)c(=O)[nH]c2=O)CC1O)Oc1cccc2ccccc12)C(=O)OCCC(C)(C)C (some centres unmarked) [CPF-585] | CPF 585 0.79 μM |  |  | reduction in the proportion of cancer stem cells | selectively target for cancer stem cells | 
C[C@H](NP(=O)(OC[C@H]1O[C@@H](n2cnc3c(N)nc(F)nc32)[C@H](O)C1O)Oc1ccccc1)C(=O)OCc1ccccc1 (some centres unmarked) [CPF-682] |  |  |  | significant decrease in the proportion of cancer stem cells | selectively target for cancer stem cells; also recorded: high selectivity for cancer stem cells | comparable
C[C@H](NP(=O)(OC[C@H]1O[C@@H](n2cnc3c(N)nc(Cl)nc32)[C@H](F)C1O)Oc1cccc2ccccc12)C(=O)OCC(C)(C)C (some centres unmarked) [CPF-720] |  |  | approximately 6×10^−8 M | reduction in the proportion of cancer stem cells | selectively target for cancer stem cells | 
CCCCCOC(=O)[C@@H](C)NP(=O)(OC[C@H]1O[C@@H](n2cnc3c(N)nc(Cl)nc32)[C@H](F)C1O)Oc1cccc2ccccc12 (some centres unmarked) [CPF-727] |  |  | approximately 6×10^−8 M | reduction in the proportion of cancer stem cells | selectively target for cancer stem cells | 
C[C@H](NP(=O)(OC[C@H]1O[C@@H](n2cnc3c(=S)[nH]cnc32)[C@@H](O)C1O)Oc1cccc2ccccc12)C(=O)OCc1ccccc1 (some centres unmarked) [CPF-761] |  |  |  | reduction of the proportion of cancer stem cells | selectively target for cancer stem cells | greater selectivity; also recorded: most selective; also recorded: increase in selectivity was statistically significant
C[C@H](NP(=O)(OC[C@H]1O[C@@H](n2cnc3c(=S)[nH]cnc32)[C@@H](O)C1O)Oc1cccc2ccccc12)C(=O)OCC(C)(C)C (some centres unmarked) [CPF-762] |  |  |  | reduction of the proportion of cancer stem cells | selectively target for cancer stem cells | greater selectivity
C[C@H](NP(=O)(OC[C@H]1O[C@@H](n2cnc3c(=S)[nH]c(N)nc32)[C@@H](O)C1O)Oc1cccc2ccccc12)C(=O)OCc1ccccc1 (some centres unmarked) [CPF-775] |  |  |  | strong reduction in the proportion of cancer stem cells | selectively target for cancer stem cells; also recorded: high selectivity for cancer stem cells | statistically significant increases in selectivity at certain concentrations
C[C@H](NP(=O)(Oc1cccc2ccccc12)OC1C[C@H](n2cnc3c(N)nc(Cl)nc32)O[C@@H]1CO)C(=O)OCc1ccccc1 (some centres unmarked) [CPF-791] |  |  |  | reduction in the proportion of cancer stem cells | selectively target for cancer stem cells | greater selectivity
C[C@H](NP(=O)(Oc1ccccc1)OC1C[C@H](n2cnc3c(N)nc(Cl)nc32)O[C@@H]1CO)C(=O)OCc1ccccc1 (some centres unmarked) [CPF-793] |  |  | approximately 6×10^−8 M | reduction in the proportion of cancer stem cells; also recorded: particularly striking | selectively target for cancer stem cells; also recorded: high selectivity for cancer stem cells | greater selectivity; also recorded: statistically significant
Nc1nc(Cl)nc2c1ncn2[C@H]1C[C@H](O)[C@@H](CO)O1 [Cladribine] |  |  |  | reduction in the proportion of cancer stem cells |  | 
Nc1nc(Cl)nc2c1ncn2[C@@H]1O[C@H](CO)[C@@H](O)[C@@H]1F [Clofarabine] |  |  | approximately 6×10^−8 M | reduction in the proportion of cancer stem cells |  | 
Nc1ccn([C@@H]2O[C@H](CO)[C@@H](O)C2(F)F)c(=O)n1 [Gemcitabine] | Gemcitabine 1.4 μM |  |  |  |  | 
OC[C@H]1O[C@@H](n2cnc3c(S)ncnc32)[C@H](O)[C@@H]1O [Thioinosine] |  |  |  | reduction of the proportion of cancer stem cells |  | 
